Data from patent US20240374631A1, “A COMPOSITION FOR IMPROVING GUT MICROBIOTA, BEHAVIOURAL PATTERN, ALPHA-SYNUCLEIN LEVELS, SLEEP PATTERN AND/OR SERUM MELATONIN” (GN Corporation Co Ltd, priority 2021, published 2024).

Test system: gut microbiota
Assay: Gut microbiome analysis (16S rRNA sequencing of fecal samples) in STAM model of NASH
Format: in vivo, C57BL/6J mice
Description: The study is reported in accordance with Animal Research: Reporting of In Vivo Experiments (ARRIVE) guidelines. C57BL/6J mice were obtained from Japan SLC, Inc. (Japan). All animals used in this study were cared for under the following guidelines: Act on Welfare and Management of Animals (Ministry of the Environment, Japan, Act No. 105 of Oct. 1, 1973), standards relating to the care and management of laboratory animals and relief of pain (Notice No. 88 of the Ministry of the Environment, Japan, Apr. 28, 2006) and the guidelines for proper conduct of animal experiments (Science Council of Japan, Jun. 1, 2006). Protocol approvals were obtained from SMC Laboratories, Japan's IACUC (Study reference no: […] Mice were maintained in a specific pathogen-free (SPF) facility under controlled conditions of temperature (23±3° C.), humidity (50±20%), lighting (12-hour artificial light and dark cycles; light from 8:00 to 20:00) and air exchange. The STAM model of NASH was induced as previously described [D10]. Mice were given a single subcutaneous injection of 200 μg streptozotocin (STZ, Sigma-Aldrich, USA) solution 2 days after birth and fed with a high-fat diet (HFD, 57 kcal % fat, Cat #HFD32, CLEA Japan, Inc., Japan) from 4-9 weeks of age. All mice develop liver steatosis and diabetes and at […] mice had established steatohepatitis, histologically. Studygroups: There were five study groups, described below. Eight mice were included in each study group. Eight NASH mice were orally administered vehicle supplemented with AFO-202 Beta Glucan at a dose of 1 mg/kg in a volume of 5 mL/kg once daily from 6 to 9 weeks of age. Eight NASH mice were orally administered vehicle supplemented with Telmisartan at a dose of 10 mg/kg once daily from 6 to 9 weeks of age. Frequency: Fecal samples were collected at the 6 weeks of age (before administration) and 9 weeks of age (before sacrifice). Procedure: At 6 weeks of age, fecal samples were collected from each mouse by clean catch method. […] A sterile petri dish was placed on the bench. Gently massage the abdomen, position the bottom of mouse over a fresh petri dish, and collect 1-2 fecal pellets. At sacrifice, fecal samples were aseptically collected from cecum. The tubes with feces were placed on ice immediately. These tubes were snap frozen in liquid nitrogen and stored at -80° C. for shipping. In this analysis, the 16S rRNA sequence data acquired by the next-generation sequencer from the fecal […] was used to perform community analysis using the QIIME2 program for microbial community analysis. The raw read data in FASTQ format output from the next-generation sequencer was trimmed to remove adapter sequences and low QV regions that may be included in the data. Cutadapt was used to remove adapter sequences from DNA sequencing reads. Trimmomatic was used as read trimming tool for Illumina NGS data. The adapter sequence was trimmed using the adapter trimming program “cutadapt” if the Trimming of the region at the end of the read sequence overlapped the corresponding sequence by at least one base (mismatch tolerance: 20%). When reads containing N were present in at least one of Read1 and Read2, both Read1 and Read2 were removed. Trimming of low QV regions was performed on the read data after processing using the QV trimming program “Trimmomatic” under the following conditions. The window of 20 bases is slid from the 5' side, and the area where the average QV is less than 20 is trimmed. After trimming, only the reads with more than 50 bases remaining in both Read1 and Read2 were taken as output. The microbial community analysis based on 16S rRNA sequence was performed on the sequence data trimmed in the previous section using the microbial community analysis program “QIIME2”. The annotation program “sklearn” included in QIIME2 is used to annotate the ASV (OTU) sequences. […]

For `CCCc1nc2c(C)cc(-c3nc4ccccc4n3C)cc2n1Cc1ccc(-c2ccccc2C(=O)O)cc1` [Telmisartan], the “Abundance: Family Methanobacteriaceae, Genus Methanobrevibacter, Species —” value (pre (baseline), table row r429) was 0, the “Abundance: Family Lachnospiraceae, Genus Other, Species Other” value (pre (baseline), table row r431) was 12 and the “Abundance: Family Lachnospiraceae, Genus Dorea, Species —” value (pre (baseline), table row r432) was 0. For the same compound, the “Abundance: Family Lachnospiraceae, Genus Dorea, Species —” value (pre (baseline), table row r433) was 7, the “Abundance: Family Lachnospiraceae, Genus —, Species —” value (pre (baseline), table row r434) was 11 and the “Abundance: Family Erysipelotrichaceae, Genus —, Species —” value (pre (baseline), table row r435) was 0. The “Abundance: Family Other, Genus Other, Species Other” value (pre (baseline), table row r437) was 0, the “Abundance: Family Ruminococcaceae, Genus Ruminococcus, Species —” value (pre (baseline), table row r438) was 0 and the “Abundance: Family Lachnospiraceae, Genus Other, Species Other” value (pre (baseline), table row r439) was 0. For the same compound, the “Abundance: Family Erysipelotrichaceae, Genus Clostridum, Species cocleatum” value (pre (baseline), table row r440) was 0, the “Abundance: Family Clostridiaceae, Genus —, Species —” value (pre (baseline), table row r441) was 10 and the “Abundance: Family S24-7, Genus —, Species —” value (pre (baseline), table row r442) was 0. For the same compound, the “Abundance: Family Ruminococcaceae, Genus Oscillospira, Species —” value (“Abundance … Genus Oscillospira, Species —” below) (pre (baseline), table row r443) was 0, the “Abundance: Family Erysipelotrichaceae, Genus —, Species —” value (pre (baseline), table row r446) was 0 and the “Abundance: Family Streptococcaceae, Genus —, Species —” value (pre (baseline), table row r447) was 0. For the same compound, the “Abundance: Family Erysipelotrichaceae, Genus —, Species —” value (pre (baseline), table row r448) was 0, the “Abundance: Family Turicibacteraceae, Genus Turicibacter, Species —” value (pre (baseline), table row r449) was 0 and the “Abundance: Family S24-7, Genus —, Species —” value (pre (baseline), table row r450) was 0. The “Abundance … Genus Oscillospira, Species —” value (pre (baseline), table row r451) was 0, the “Abundance: Family Lachnospiraceae, Genus —, Species —” value (pre (baseline), table row r452) was 0 and the “Abundance: Family Erysipelotrichaceae, Genus —, Species —” value (pre (baseline), table row r454) was 0. The “Abundance: Family Ruminococcaceae, Genus Ruminococcus, Species —” value (pre (baseline), table row r455) was 0, the “Abundance: Family Moraxellaceae, Genus Psychrobacter, Species Other” value (pre (baseline), table row r456) was 0 and the “Abundance: Family Paenibacillaceae, Genus Other, Species Other” value (pre (baseline), table row r457) was 0. For the same compound, the “Abundance: Family Lachnospiraceae, Genus Coprococcus, Species —” value (pre (baseline), table row r458) was 0, the “Abundance: Family Bacillaceae, Genus Bacillus, Species —” value (pre (baseline), table row r459) was 0 and the “Abundance: Family Enterococcaceae, Genus Vagococcus, Species —” value (pre (baseline), table row r460) was 0. The “Abundance: Family Lachnospiraceae, Genus —, Species —” value (pre (baseline), table row r462) was 0, the “Abundance … Genus Oscillospira, Species —” value (pre (baseline), table row r466) was 0 and the “Abundance: Family Erysipelotrichaceae, Genus —, Species —” value (pre (baseline), table row r468) was 4. The “Abundance: Family Other, Genus Other, Species Other” value (pre (baseline), table row r469) was 0, the “Abundance: Family Clostridiaceae, Genus Clostridium, Species Other” value (pre (baseline), table row r470) was 0 and the “Abundance: Family Ruminococcaceae, Genus —, Species —” value (pre (baseline), table row r473) was 3. For the same compound, the “Abundance: Family Deferribacteraceae, Genus Mucispirillum, Species schaedleri” value (pre (baseline), table row r474) was 0, the “Abundance: Family Turicibacteraceae, Genus Turicibacter, Species —” value (pre (baseline), table row r475) was 0 and the “Abundance: Family [Mogibacteriaceae], Genus —, Species —” value (pre (baseline), table row r478) was 0. For the same compound, the “Abundance: Family Lachnospiraceae, Genus Dorea, Species longicateria” value (pre (baseline), table row r480) was 2, the “Abundance: Family Ruminococcaceae, Genus —, Species —” value (pre (baseline), table row r481) was 0 and the “Abundance: Family Lachnospiraceae, Genus —, Species —” value (pre (baseline), table row r482) was 0. The “Abundance Erysipelotrichaceae/Allobaculum/—” value (pre, line r8) was 6375, the “Abundance Turicibacteraceae/Turicibacter/—” value (pre, line r9) was 9408 and the “Abundance Desulfovibrionaceae/—/—” value (pre, line r10) was 3882. The “Abundance Clostridiaceae/Other/Other” value (pre, line r11) was 7143, the “Abundance Lactobacillaceae/Lactobacillus/—” value (pre, line r12) was 416 and the “Abundance Streptococcaceae/Lactococeus/—” value (pre, line r13) was 2239. For the same compound, the “Abundance Bacteroidaceae/Bacteroides/—” value (pre, line r14) was 1596, the “Abundance [Paraprevotellaceae]/[Prevotella]/—” value (pre, line r15) was 1674 and the “Abundance —/—/—” value (pre, line r16) was 1552. For the same compound, the “Abundance Deferribacteraceae/Mucispirillum/schaedleri” value (pre, line r17) was 4795, the “Abundance Bacteroidaceae/Bacteroides/acidifaciens” value (pre, line r18) was 983 and the “Abundance —/—/—” value (pre, line r19) was 853. For the same compound, the “Abundance Verrucomicrobiaceae/Akkermansia/muciniphila” value (pre, line r20) was 2305, the “Abundance Rikenellaceae/—/—” value (pre, line r21) was 696 and the “Abundance Enterobacteriaceae/Other/Other” value (pre, line r22) was 17. For the same compound, the “Abundance Lactobacillaceae/Lactobacillus/—” value (pre, line r23) was 883, the “Abundance S24-7/—/—” value (pre, line r24) was 623 and the “Abundance Lachnospiraceae/—/—” value (pre, line r25) was 752. For the same compound, the “Abundance Peptostreptocpccaceae/—/—” value (pre, line r26) was 1121, the “Abundance Lachnospiraceae/[Ruminococcus]/gnavus” value (pre, line r27) was 2041 and the “Abundance Lachnospiraceae/Coprococeus/—” value (pre, line r28) was 444. The “Abundance Bifidobacteriaceae/Bifidobacterium/pseudolongum” value (pre, line r29) was 1317, the “Abundance Enterobacteriaceae/Proteus/—” value (pre, line r30) was 0 and the “Abundance Lactobacillaceae/Lactobacillus/Other” value (pre, line r31) was 64. The “Abundance S24-7/—/—” value (pre, line r32) was 740, the “Abundance Porphyromonadaceae/Parabacteroides/distasonis” value (pre, line r33) was 320 and the “Abundance Clostridiaceae/—/—” value (pre, line r34) was 1242. The “Abundance —/—/—” value (pre, line r35) was 420, the “Abundance Desulfovibrionaceae/Desulfovibrio/—” value (pre, line r36) was 65 and the “Abundance S24-7/—/—” value (pre, line r37) was 708. The “Abundance Coriobacteriaceae/Adlercreutzia/—” value (pre, line r38) was 625, the “Abundance S24-7/—/—” value (pre, line r39) was 480 and the “Abundance Erysipelotrichaceae/Clostridium/cocleatum” value (pre, line r40) was 319. For the same compound, the “Abundance Ruminococcaceae/Ruminococcus/—” value (pre, line r41) was 1164, the “Abundance Lachnospiraceae/Other/Other” value (pre, line r43) was 481 and the “Abundance Lachnospiraceae/[Ruminococcus]/gnavus” value (pre, line r44) was 311. The “Abundance Turicibacteraceae/Turicibacter/—” value (pre, line r45) was 586, the “Abundance Lachnospiraceae/—/—” value (pre, line r46) was 611 and the “Abundance Bacteroidaceae/Bacteroides/—” value (pre, line r47) was 460. The “Abundance Ruminococcaceae/Oscillospira/—” value (pre, line r48) was 293, the “Abundance Lachnospiraceae/Roseburia/—” value (pre, line r50) was 488 and the “Abundance Lachnospiraceae/—/—” value (pre, line r51) was 338. The “Abundance S24-7/—/—” value (pre, line r52) was 305, the “Abundance Lachnospiraceae/[Ruminococcus]/gnavus” value (pre, line r53) was 123 and the “Abundance Lachnospiraceae/Coprococcus/—” value (pre, line r56) was 126. For the same compound, the “Abundance S24-7/—/—” value (pre, line r57) was 322, the “Abundance S24-7/—/—” value (pre, line r58) was 237 and the “Abundance Lachnospiraceae/Other/Other” value (pre, line r60) was 562. For the same compound, the “Abundance Lachnospiraceae/[Ruminococcus]/gnavus” value (pre, line r61) was 375, the “Abundance Erysipelotrichaceae/Allobaculum/—” value (pre, line r62) was 286 and the “Abundance Desulfovibrionaceae/Desulfovibrio/C21_c20” value (pre, line r63) was 604. The “Abundance S24-7/—/—” value (pre, line r64) was 383, the “Abundance Streptococcaceae/Lactococcus/garvieae” value (pre, line r66) was 11 and the “Abundance Enterobacteriaceae/Proteus/—” value (pre, line r68) was 0. For the same compound, the “Abundance Lachnospiraceae/—/—” value (pre, line r69) was 44, the “Abundance S24-7/—/—” value (pre, line r70) was 399 and the “Abundance Lachnospiraceae/[Ruminococcus]/gnavus” value (pre, line r71) was 278. For the same compound, the “Abundance Clostridiaceae/Clostridium/Other” value (pre, line r73) was 707, the “Abundance Lachnospiraceae/—/—” value (pre, line r74) was 0 and the “Abundance Clostridiaceae/Other/Other” value (pre, line r75) was 215. The “Abundance Clostridiaceae/Other/Other” value (pre, line r77) was 255, the “Abundance S24-7/—/—” value (pre, line r78) was 196 and the “Abundance Lachnospiraceae/[Ruminococcus]/gnavus” value (pre, line r79) was 601. For the same compound, the “Abundance Bacteroidaceae/Bacteroides/—” value (pre, line r80) was 170.
